Here are results for 24 molecules from patent US7494996B2 (priority 2000, dated 2009).

Experiment [1] has as its system Sphaerotheca fuliginea. Description: Cucumber Powdery Mildew (CPM) protectant test in the greenhouse. It counts as in vivo. To be noted: 300 g/ha, 100 is total disease control, 0 is no disease control. Put shortly: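 Compounds in acetone-methanol-water (1:1:2) sprayed onto cucumber cv. "Bush Champion" (cotyledons plus one true leaf, 13 days old), dried 4 h. Inoculated 1 day later with 2×10^5 spores/ml; disease control (%) rated after 7 days in greenhouse.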

In experiment [2] the test system is Pyricularia oryzae. The experiment is described as follows: whole plant or invertebrate. The note with it: protectant, 300 g/ha, greenhouse; 100 is total disease control, 0 is no disease control. Type of experiment: in vivo.
For experiment [3], the system named is Two-Spotted Spider Mite. The experiment is described as follows: Protocol 1 Two-Spotted Spider Mite (MTA) foliar spray test. The note with it: Protocol 1, DOSE 150; percentage of mites killed 1-day post-treatment. It counts as in vivo, Tetranychus urticae. The protocol:
A test solution containing 1250 parts per million (ppm) was prepared by dissolving the test compound in […] of a second solvent (acetone: water, 1:1) to give an acetone:water: methanol system of 50: 40:10.
The enclosed spraying chamber consisted of a single spray nozzle mounted on a boom moving at a fixed speed and distance over stationary targets. The vertical distance from the nozzle tip to the targets was adjusted to give rates varying from 150 g/ha to 600 g/ha
A pad of moistened cotton was placed in a Petri dish. A 1-inch square section cut from a fully expanded primary lima bean (Phaseolus limensis) leaf was positioned bottom side up on the moist cotton. The leaf square was infested with approximately 50 adult female mites. The dishes were sprayed with the test solutions and held at 27° C. for mortality determination 1-day post-treatment. The percentage of mites killed were rated from 100% (all dead) to 0% (all alive).

With `O=C1CNC(c2cc3ccccc3s2)=NN1CC(F)(F)F` [Compound 163], in experiment [1], the “Cucumber Powdery Mildew (CPM) protectant fungicide data, percent control” value (“Cucumber Powdery Mildew … percent control” below) came to 0 percent control. The “Rice Blast (RB) protectant fungicide data, percent control” value (shortened to “Rice Blast … percent control”) in experiment [2] is 90 percent control. The MTA in experiment [3] turned out to be 100%.

Turning to `O=c1cnc(-c2ccc(Cl)cc2)nn1Cc1ccc(Cl)s1` [Compound 266], the “Cucumber Powdery Mildew … percent control” value in experiment [1] turned out to be 50 percent control. In addition, the “Rice Blast … percent control” value in experiment [2] turned out to be 90 percent control. For the same molecule, the MTA in experiment [3] worked out at 0%.

Turning to `C[Si](C)(C)Cn1nc(-c2ccc(Cl)cc2)ncc1=O` [Compound 265], the “Cucumber Powdery Mildew … percent control” value in experiment [1] worked out at 90 percent control. For the same molecule, in experiment [2], the “Rice Blast … percent control” value was 85 percent control. Further, the MTA in experiment [3] turned out to be 0%.

For the molecule `C=COC(=O)N1CC(=O)N(CCCC)N=C1c1cc(Cl)cc(Cl)c1` [Compound 127], the “Cucumber Powdery Mildew … percent control” value in experiment [1] is recorded as 50 percent control. Besides, the “Rice Blast … percent control” value in experiment [2] came to 95 percent control. This molecule had an MTA in experiment [3] of 95%.

With `CCN1N=C(c2ccc(Cl)c(Cl)c2)NCC1=O` [Compound 100], in experiment [1], the “Cucumber Powdery Mildew … percent control” value came out at 80 percent control. For the same molecule, in experiment [2], the “Rice Blast … percent control” value is reported as 99 percent control. The MTA in experiment [3] was 25%.

Turning to `CCCCn1nc(-c2cc(Cl)cc(Cl)c2)ncc1=O` [Compound 271], in experiment [1], the “Cucumber Powdery Mildew … percent control” value is 50 percent control. Further, in experiment [2], the “Rice Blast … percent control” value is 99 percent control. Also, the MTA in experiment [3] amounted to 93%.

Turning to `CCCCN1N=C(c2ccc(F)c(F)c2)NCC1=O` [Compound 69], the “Cucumber Powdery Mildew … percent control” value in experiment [1] came out at 80 percent control. Besides, in experiment [2], the “Rice Blast … percent control” value came to 95 percent control. The molecule also came in with an MTA in experiment [3] of 68%.

`O=C1CNC(c2cc(Cl)ccc2Cl)=NN1CC(F)(F)F` [Compound 70]: in experiment [1], the “Cucumber Powdery Mildew … percent control” value is 80 percent control. In experiment [2], the “Rice Blast … percent control” value worked out at 80 percent control. In experiment [3], this molecule displayed an MTA of 71%.

For `CCCCN1N=C(c2cccc(Cl)c2)NCC1=O` [Compound 110], in experiment [1], the “Cucumber Powdery Mildew … percent control” value stood at 90 percent control. In addition, the “Rice Blast … percent control” value in experiment [2] is 99 percent control. In experiment [3], the MTA was 100%.

`CCCCCCCCCCn1nc(-c2ccc(Cl)cc2)ncc1=O` [Compound 260]: the “Cucumber Powdery Mildew … percent control” value in experiment [1] is 0 percent control. In experiment [2], the “Rice Blast … percent control” value is listed as 75 percent control. Further, in experiment [3], the MTA amounted to 0%.

`CCCCCCCCn1nc(-c2ccc(Cl)cc2)ncc1=O` [Compound 259]: the “Cucumber Powdery Mildew … percent control” value in experiment [1] turned out to be 75 percent control. The “Rice Blast … percent control” value in experiment [2] is listed as 90 percent control. The molecule further yielded an MTA in experiment [3] of 0%.

As to `CCCCN1N=C(c2ccc(Cl)c(Cl)c2)NCC1=O` [Compound 101], the “Cucumber Powdery Mildew … percent control” value in experiment [1] came to 80 percent control. In experiment [2], the “Rice Blast … percent control” value is reported as 100 percent control. The same molecule registered an MTA in experiment [3] of 0%.

As for `C#CCOC(=O)N1CC(=O)N(CCCC)N=C1c1cc(Cl)cc(Cl)c1` [Compound 133], in experiment [1], the “Cucumber Powdery Mildew … percent control” value was found to be 0 percent control. Also, the “Rice Blast … percent control” value in experiment [2] is on record as 80 percent control. In addition, the MTA in experiment [3] is reported as 0%.

With `COC(=O)C(=O)N1CC(=O)N(CC(F)(F)F)N=C1c1cc(Cl)cc(Cl)c1` [Compound 123], the “Cucumber Powdery Mildew … percent control” value in experiment [1] was 50 percent control. In addition, the “Rice Blast … percent control” value in experiment [2] turned out to be 95 percent control. For the same molecule, in experiment [3], the MTA is 0%.

Consider `CCCCCCn1nc(-c2ccc(Cl)cc2)ncc1=O` [Compound 262], for which, in experiment [1], the “Cucumber Powdery Mildew … percent control” value came to 80 percent control. Also, the “Rice Blast … percent control” value in experiment [2] worked out at 85 percent control. Further, in experiment [3], the MTA was 0%.

The molecule `O=C1CN(Cc2ccc(Cl)s2)C(c2ccc(Cl)cc2)=NN1Cc1ccc(Cl)s1` [Compound 63] showed an MTA in experiment [3] of 0%.

For `C=CCOC(=O)N1CC(=O)N(CCCC)N=C1c1cc(Cl)cc(Cl)c1` [Compound 135], the “Cucumber Powdery Mildew … percent control” value in experiment [1] is 50 percent control. The “Rice Blast … percent control” value in experiment [2] is on record as 90 percent control. In experiment [3], the MTA is on record as 43%.

`Cc1cccc(N2N=C(c3cccc(Cl)c3)NCC2=O)c1` [Compound 112]: the “Cucumber Powdery Mildew … percent control” value in experiment [1] turned out to be 80 percent control. In addition, the “Rice Blast … percent control” value in experiment [2] amounted to 85 percent control. This molecule displayed an MTA in experiment [3] of 0%.

For the molecule `O=C1CNC(c2cc(Cl)cc(Cl)c2)=NN1CC1CC1` [Compound 109], the “Cucumber Powdery Mildew … percent control” value in experiment [1] was found to be 95 percent control. The “Rice Blast … percent control” value in experiment [2] is on record as 100 percent control. In experiment [3], this molecule gave an MTA of 90%.

`O=C1CNC(c2ccc(Cl)c(Cl)c2)=NN1Cc1ccccc1` [Compound 103]: the “Cucumber Powdery Mildew … percent control” value in experiment [1] is 0 percent control. The “Rice Blast … percent control” value in experiment [2] was 90 percent control. This molecule registered an MTA in experiment [3] of 23%.

On to `CCCCn1nc(-c2ccc(Cl)c(Cl)c2)ncc1=O` [Compound 270], for which the “Cucumber Powdery Mildew … percent control” value in experiment [1] is 95 percent control. In experiment [2], the “Rice Blast … percent control” value was 100 percent control. The MTA in experiment [3] was 0%.

Consider `CCCCN1N=C(c2ccccc2OC)NCC1=O` [Compound 195], for which, in experiment [1], the “Cucumber Powdery Mildew … percent control” value came to 50 percent control. Also, the “Rice Blast … percent control” value in experiment [2] was 99 percent control.

Consider `O=c1[nH]c(-c2cc(Cl)cc(Cl)c2)nn(CC(F)(F)F)c1=O` [Compound 21, 1-(2,2,2-Trifluorethyl)-3-(3,5-dichlorophenyl)-1,2,4-triazin-5,6-dione], for which the “Cucumber Powdery Mildew … percent control” value in experiment [1] is listed as 50 percent control. For the same molecule, the “Rice Blast … percent control” value in experiment [2] turned out to be 0 percent control.

As for `O=C1CNC(c2ccc(F)cc2)=NN1CC(F)(F)F` [Compound 149], the “Cucumber Powdery Mildew … percent control” value in experiment [1] was found to be 75 percent control. Moreover, the “Rice Blast … percent control” value in experiment [2] is 95 percent control.
